According to ChEMBL document CHEMBL4610048, “Design, synthesis, and evaluation of novel 4-amino-2-(4-benzylpiperazin-1-yl)methylbenzonitrile compounds as Zika inhibitors” (Bioorg Med Chem Lett, 2020):
Activity calls are given as the source filed them. The calls are words filed in the database; no cut-off is given here.

Tests used:
[1] = tested on: Zika virus; assay: Antiviral activity against Zika virus infected in African green monkey Vero E6 cells assessed as inhibition of viral induced cytopathic effect at 10 uM relative to control; type: functional; details: Vero C1008
[2] = Cytotoxicity against African green monkey Vero E6 cells assessed as cell viability at 10 uM relative to control; type: cell-based, Vero C1008; details: chlorocebus sabaeus, read-out: Activity
[3] = tested on: Zika virus; assay: Antiviral activity against Zika virus infected in African green monkey Vero E6 cells assessed as reduction in viral induced cytopathic effect; type: functional, organism-based; details: Vero C1008
[4] = Selectivity index, ratio of CC50 for African green monkey Vero E6 cells to EC50 for Zika virus infected in African green monkey Vero E6 cells assessed as inhibition of viral induced cytopathic effect; type: toxicity, Vero C1008; details: read-out: Ratio CC50/EC50
[5] = Cytotoxicity against African green monkey Vero E6 cells assessed as reduction in cell viability; type: cell-based, Vero C1008; details: chlorocebus sabaeus
[6] = tested on: Zika virus; assay: Antiviral activity against Zika virus infected in African green monkey Vero E6 cells assessed as suppression of viral RNA synthesis incubated for 96 hrs by qRT-PCR analysis; type: functional, organism-based; details: Vero C1008
[7] = tested on: Zika virus; assay: Antiviral activity against Zika virus infected in African green monkey Vero E6 cells assessed as suppression of viral envelope protein expression incubated for 96 hrs by Western blot analysis; type: functional, organism-based; details: Vero C1008
[8] = tested on: Zika virus; assay: Antiviral activity against Zika virus infected in African green monkey Vero E6 cells assessed as inhibition of viral induced cytopathic effect at 40 uM relative to control; type: functional; details: Vero C1008
[9] = Cytotoxicity against African green monkey Vero E6 cells assessed as cell viability at 40 uM relative to control; type: cell-based, Vero C1008; details: chlorocebus sabaeus, read-out: Activity
[10] = tested on: Zika virus; assay: Antiviral activity against Zika virus infected in African green monkey Vero E6 cells assessed as suppression of viral envelope protein expression at 1.25 to 10 uM incubated for 96 hrs by Western blot analysis; type: functional, organism-based; details: Vero C1008
[11] = tested on: Zika virus; assay: Antiviral activity against Zika virus infected in African green monkey Vero E6 cells assessed as suppression of viral RNA synthesis at 1.25 to 10 uM incubated for 96 hrs by qRT-PCR analysis; type: functional, organism-based; details: Vero C1008
[12] = tested on: Zika virus; assay: Antiviral activity against Zika virus infected in African green monkey Vero E6 cells assessed as suppression of viral RNA synthesis at 10 uM incubated for 96 hrs by qRT-PCR analysis; type: functional, organism-based; details: Vero C1008
[13] = tested on: Zika virus; assay: Antiviral activity against Zika virus infected in African green monkey Vero E6 cells assessed as suppression of viral envelope protein expression at 10 uM incubated for 96 hrs by Western blot analysis; type: functional, organism-based; details: Vero C1008

Structure (SMILES): CN(C)c1ccc(C#N)c(CN2CCN(Cc3ccc(C(F)(F)F)cc3)CC2)c1
- inhibition at 10 µM [1]: 19.2%
- viability at 10 µM [2]: 90.5%

Structure (SMILES): CN1CCCN(c2ccc(C#N)c(CN3CCN(Cc4ccccc4)CC3)c2)CC1
- EC50 [3]: 5.3 µM
- inhibition at 10 µM [1]: 84.3%
- viability at 10 µM [2]: 93.6%
- selectivity ratio [4]: > 19
- CC50 [5]: > 100 µM

Structure (SMILES): CN(C)CCN(C)c1ccc(C#N)c(CN2CCN(Cc3ccccc3Cl)CC2)c1
- inhibition [6]: Dose-dependent effect
- EC50 [3]: 5.1 µM
- inhibition at 10 µM [1]: 70.4%
- viability at 10 µM [2]: 86.1%
- inhibition [7]: Dose-dependent effect
- selectivity ratio [4]: > 20
- CC50 [5]: > 100 µM

Structure (SMILES): CN(C)CCN(C)c1ccc(C#N)c(CN2CCN(Cc3cccc(Cl)c3)CC2)c1
- inhibition at 10 µM [1]: 54.8%
- viability at 10 µM [2]: 73.6%

Structure (SMILES): NC(=O)c1ncn([C@@H]2O[C@H](CO)[C@@H](O)[C@H]2O)n1 [RIBAVIRIN]
- EC50 [3]: 33 µM
- inhibition at 40 µM [8]: 37%
- selectivity ratio [4]: > 3
- CC50 [5]: > 100 µM
- viability at 40 µM [9]: 94.5%

Structure (SMILES): CN1CCCN(c2ccc(C#N)c(CN3CCN(Cc4ccc(C(F)(F)F)cc4)CC3)c2)CC1
- inhibition at 10 µM [1]: 47.5%
- viability at 10 µM [2]: 81.3%

Structure (SMILES): CN1CCCN(c2ccc(C#N)c(CN3CCN(Cc4ccccc4C#N)CC3)c2)CC1
- inhibition at 10 µM [1]: 36.2%
- viability at 10 µM [2]: 87.1%

Structure (SMILES): N#Cc1ccc(NCCn2cccc2)cc1CN1CCN(Cc2ccc(C(F)(F)F)cc2)CC1
- inhibition at 10 µM [1]: 56.2%
- viability at 10 µM [2]: 75.7%

Structure (SMILES): CN1CCCN(c2ccc(C#N)c(CN3CCN(Cc4ccc(C#N)cc4)CC3)c2)CC1
- EC50 [3]: 4.4 µM
- inhibition at 10 µM [1]: 77.4%
- inhibition [10]: inactive
- viability at 10 µM [2]: 76%
- selectivity ratio [4]: > 22
- CC50 [5]: > 100 µM
- inhibition [11]: inactive

Structure (SMILES): CN(CCc1ccccc1)c1ccc(C#N)c(CN2CCN(Cc3ccc(C(F)(F)F)cc3)CC2)c1
- inhibition at 10 µM [1]: 35.1%
- viability at 10 µM [2]: 73.6%

Structure (SMILES): CN(C)CCN(C)c1ccc(C#N)c(CN2CCN(C3CCc4ccccc4C3)CC2)c1 (stereo not given)
- inhibition at 10 µM [1]: 81.8%
- viability at 10 µM [2]: 67.8%

Structure (SMILES): N#Cc1ccc(NCCCn2ccnc2)cc1CN1CCN(Cc2ccc(F)cc2)CC1
- inhibition at 10 µM [1]: 58.3%
- viability at 10 µM [2]: 96.5%

Structure (SMILES): CC(c1ccccc1)N1CCN(Cc2ccccc2C#N)CC1 (stereo not given)
- inhibition at 10 µM [1]: 35.8%
- viability at 10 µM [2]: 77.5%

Structure (SMILES): CN(C)CCN(C)c1ccc(C#N)c(CN2CCN(Cc3ccc(C#N)cc3)CC2)c1
- EC50 [3]: 5.6 µM
- inhibition at 10 µM [1]: 75.5%
- viability at 10 µM [2]: 77.4%
- selectivity ratio [4]: 10
- CC50 [5]: 66 µM

Structure (SMILES): N#Cc1ccc(CN2CCN(Cc3ccc(C#N)cc3)CC2)cc1
- inhibition at 10 µM [1]: 12.6%
- viability at 10 µM [2]: 89.6%

Structure (SMILES): N#Cc1ccc(NCCN2CCOCC2)cc1CN1CCN(Cc2ccc(C(F)(F)F)cc2)CC1
- inhibition at 10 µM [1]: 47.5%
- viability at 10 µM [2]: 79.2%

Structure (SMILES): N#Cc1ccccc1CN1CCN(Cc2ccccc2C#N)CC1
- inhibition at 10 µM [1]: 34.7%
- viability at 10 µM [2]: 93.8%

Structure (SMILES): CN(C)CCN(C)c1ccc(C#N)c(CN2CCN(Cc3ccc(F)cc3)CC2)c1
- inhibition at 10 µM [1]: 60.7%
- viability at 10 µM [2]: 85.1%

Structure (SMILES): COc1ccc(CN2CCN(Cc3cc(N4CCCN(C)CC4)ccc3C#N)CC2)cc1
- inhibition at 10 µM [1]: 59.2%
- viability at 10 µM [2]: 65.8%

Structure (SMILES): CN(C)CCN(C)c1ccc(C#N)c(CN2CCN(Cc3ccc(Cl)cc3)CC2)c1
- inhibition at 10 µM [1]: 50.9%
- viability at 10 µM [2]: 82.1%

Structure (SMILES): CC(c1ccccc1)N1CCN(Cc2cc(N3CCCN(C)CC3)ccc2C#N)CC1 (stereo not given)
- inhibition at 10 µM [1]: 26.7%
- viability at 10 µM [2]: 55.1%

Structure (SMILES): N#Cc1ccc(NCCCn2ccnc2)cc1CN1CCN(Cc2ccc(C(F)(F)F)cc2)CC1
- EC50 [3]: 4.9 µM
- inhibition at 10 µM [1]: 66.5%
- viability at 10 µM [2]: 70%
- inhibition [12]: Active
- inhibition [13]: Active
- selectivity ratio [4]: 5
- CC50 [5]: 23.7 µM

Structure (SMILES): N#Cc1ccc(N2CCNCC2)cc1CN1CCN(Cc2ccc(C(F)(F)F)cc2)CC1
- inhibition at 10 µM [1]: 0.5%
- viability at 10 µM [2]: 89%

Structure (SMILES): CC(=O)N1CCN(c2ccc(C#N)c(CN3CCN(Cc4ccc(C(F)(F)F)cc4)CC3)c2)CC1
- inhibition at 10 µM [1]: 15.1%
- viability at 10 µM [2]: 89.1%

Structure (SMILES): CN1CCN(c2ccc(C#N)c(CN3CCN(Cc4ccc(C(F)(F)F)cc4)CC3)c2)CC1
- inhibition at 10 µM [1]: 0.3%
- viability at 10 µM [2]: 84.5%

Structure (SMILES): CN(C)CCOc1ccc(C#N)c(CN2CCN(Cc3ccc(C(F)(F)F)cc3)CC2)c1
- inhibition at 10 µM [1]: 32.8%
- viability at 10 µM [2]: 80.1%

Structure (SMILES): CN1CCCN(c2ccc(C#N)c(CN3CCN(Cc4ccc(F)cc4)CC3)c2)CC1
- inhibition at 10 µM [1]: 55.1%
- viability at 10 µM [2]: 79.3%

Structure (SMILES): CC(c1ccccc1)N1CCN(Cc2cc(N(C)CCN(C)C)ccc2C#N)CC1 (stereo not given)
- inhibition at 10 µM [1]: 43%
- viability at 10 µM [2]: 64.7%
